Assay results: the supplement of paper PMC11208160

Experiment: recombinant UMI read abundance after kanamycin selection (control-corrected) (log10(CPM+1)); higher = more efficient recombination; extreme values may be limits of the assay; sequences stand for … in AGTGCAGAGAAAATCGGCCAGTTTTCTCTGCCTGCAGTCCGCATGCCGTGGGACCCCTTGGGTTCTAACCTGTTGCCTAGATTTATGCAGCGGACTGCCTTTCTCCCAAAGTGATAAACCGG…AGGTTGGTTTCACT; site = the 11-nt donor
Outline: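 Sequenced counts of recombinant UMIs were turned into CPM, averaged across replicates and scaled with control-derived factors. The reported figure is log10(CPM+1). Those UMIs, each 12 nt long, tagged donor and donor-binding-loop pairs on a plasmid with a promoterless kanamycin gene, screened as a pool in Escherichia coli with IPTG (0.07 mM) plus kanamycin or without selection.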
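Also: IS621 bridge recombinase in Escherichia coli cells against a fixed T5 target plasmid.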

Sequence | recombinant UMI read abundance (log10)
CTCTACACATGGACCGGTTTTCCCGGTAATCCGTATTTGCT (site GTCTACACTAG) | 0.232
CTCTACACATGGACCGGTTTTCCCGGTAATCCGTATTTGCT (site TTCTACACTAG) | 0.107
CTCTACACATGGACCGGTTTTCCCGGTAATCCGTATTTGTT (site CTCTACACTAA) | 0.93
CTCTACACATGGACCGGTTTTCCCGGTAATCCGTATTTGTT (site CTCTACACTAC) | 0.0026
CTCTACACATGGACCGGTTTTCCCGGTAATCCGTATTTGTT (site CTCTACACTAG) | 1.45
CTCTACACATGGACCGGTTTTCCCGGTAATCCGTATTTGTT (site CTCTACACTAT) | 0.616
CTCTACTCATGGACCGGTTTTCCCGGTAATCCGTATTTGCT (site CTCTACACTAG) | 0.869
CTCTACTCATGGACCGGTTTTCCCGGTAATCCGTATTTGCT (site CTCTACCCTAG) | 1.17
CTCTACTCATGGACCGGTTTTCCCGGTAATCCGTATTTGCT (site CTCTACGCTAG) | 0.00255
CTCTACTCATGGACCGGTTTTCCCGGTAATCCGTATTTGCT (site CTCTACTCTAG) | 2.5
CTCTAGCCATGGACCGGTTTTCCCGGTAATCCGTATTTGCC (site CACTAGCCTGG) | 0.69
CTCTAGCCATGGACCGGTTTTCCCGGTAATCCGTATTTGCC (site CCCTAGCCTGG) | 0
CTCTAGCCATGGACCGGTTTTCCCGGTAATCCGTATTTGCC (site CGCTAGCCTGG) | 0
CTCTAGCCATGGACCGGTTTTCCCGGTAATCCGTATTTGCC (site CTCTAGCCTGG) | 0
CTCTATACATGGACCGGTTTTCCCGGTAATCCGTATTTGAC (site ATCTATACTGT) | 0
CTCTATACATGGACCGGTTTTCCCGGTAATCCGTATTTGAC (site CTCTATACTGT) | 2.07

Sequence | recombinant UMI read abundance (log10)
CTCTATACATGGACCGGTTTTCCCGGTAATCCGTATTTGAC (site GTCTATACTGT) | 0.00602
CTCTATACATGGACCGGTTTTCCCGGTAATCCGTATTTGAC (site TTCTATACTGT) | 0
CTCTCATCATGGACCGGTTTTCCCGGTAATCCGTATTTGCT (site CGATCATCTAG) | 0
CTCTCATCATGGACCGGTTTTCCCGGTAATCCGTATTTGCT (site CTCTCATCTAG) | 2.05
CTCTCCACATGGACCGGTTTTCCCGGTAATCCGTATTTGTC (site CTCTCCACTGA) | 2.77
CTCTCGACATGGACCGGTTTTCCCGGTAATCCGTATTTGAC (site CTCTCGACTGT) | 1.34
CTCTGCCCATGGACCGGTTTTCCCGGTAATCCGTATTTGAT (site CTCTGCCCTAT) | 0.509
CTCTGGCCATGGACCGGTTTTCCCGGTAATCCGTATTTGCG (site CTCTGGCCTCG) | 0
CTCTTCTCATGGACCGGTTTTCCCGGTAATCCGTATTTGCT (site CTCTTCTCTAG) | 2.6
CTGAATTCATGGACCGGTTTTCCCGGTAATCCGTATTTGCC (site CTGAATTCTGG) | 1.06
CTGACATCATGGACCGGTTTTCCCGGTAATCCGTATTTGAG (site CTGACATCTCT) | 1.86
CTGACGACATGGACCGGTTTTCCCGGTAATCCGTATTTGCA (site CTGACGACTTG) | 1.71
CTGATACCATGGACCGGTTTTCCCGGTAATCCGTATTTGTA (site CTGATACCTTA) | 0.00514
CTGCAACCATGGACCGGTTTTCCCGGTAATCCGTATTTGCT (site CTGCAACCTAG) | 0.209
CTGCAACCATGGACCGGTTTTCCCGGTAATCCGTATTTGCT (site CTGCCACCTAG) | 0.0268
CTGCAACCATGGACCGGTTTTCCCGGTAATCCGTATTTGCT (site CTGCGACCTAG) | 0.00379
